Data: PubChem BioAssay AID2060485 (Molecular Pharmacology Branch, DTP, NCI, 2025)

Test system: A375 multi-cell spheroids with HUVEC/MSC, viability
Assay: Anticancer human tumor A375 cell line growth inhibition [GQUAD];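 further: spheroids exposed to compounds for seven days before readout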
Details: for IC50: curve of first compound; for viability, T/C: stronger effect = lower value
From the text: DNA G-quadruplex Stabilizer Agents in Combinations in Complex Spheroids
A high-throughput screen of multi-cell type tumor spheroids was designed to identify active combinations of DNA G-quadruplex stabilizer agents and targeted small molecules. Complex spheroids include a stromal component modeled by human endothelial cells (HUVEC) and fibroblasts modeled by human mesenchymal stem cells (MSCs). The concentration ranges selected for each drug and investigational agent were based upon clinically achievable concentrations if the clinical Cmax of the agent was known.
Compounds. The drugs and investigational agents: pidnarulex (CX-5461; NSC782164), APTO-253 (NSC789042), BRACO-19 (NSC847499), peposertib (NSC802822), ceralasertib (NSC780249), elimusertib (NSC800525), camonsertib (NSC841442), AZD-1390 (NSC803789), olaparib (NSC753686), talazoparib (NSC767125), ART-558 (NSC835418), sotorasib (NSC818433), MRTX-1133 (NSC836407), SN-38 (NSC673596), topotecan (NSC609699), etoposide (NSC141540), doxorubicin (NSC123127), gemcitabine (NSC613327), 5-fluorouracil (NSC19893), paclitaxel (NSC125973), vemurafenib (NSC761431), panobinostat (NSC761190), R-306465 (JNJ-16241199; NSC773264), adavosertib (NSC754352), TP-3654 (NSC805149), carboplatin (NSC241240), KSQ-4279 (NSC840948), and staurosporine (NSC755774) were obtained from the National Cancer Institute (NCI) Developmental Therapeutics Program Chemical Repository (34). The FDA-approved anticancer drug set is available from the NCI Developmental Therapeutics Program. […] The stock solutions were prepared in dimethyl sulfoxide (DMSO, Sigma-Aldrich, St. Louis, MO, cat. D2650) at 800-fold the tested concentration and stored at -70 degrees C prior to their use. All drugs and investigational agents were tested over a range starting from a high concentration at or near the clinical Cmax and decreasing in half-log increments. If the clinical Cmax for an agent had not been determined, the highest concentration tested was 10 microM.
2.3 Cell Culture. All cells were maintained in an incubator at 37 degrees C and 5% CO2 with 95% humidity. The PDC lines were cultured according to standard operating procedures established by the NCI PDMR. All PDCs were thawed and cultured in Matrigel-coated flasks prepared with a working solution of 1X Ham's F-12 nutrient mix, without supplementation (Invitrogen, cat. 11765054), 100 U/mL penicillin-streptomycin (Invitrogen, cat. 15140122), and 2.5% Matrigel (Corning Inc., cat. 354248) for the first three passages. The 857933-349-R-J2-PDC line was cultured in 6C/Colon 1B media, which includes advanced DMEM/F-12 (Thermo Fisher Scientific, cat. 12634028), 10 mM HEPES (Thermo Fisher Scientific, cat. 15630080), 1X GlutaMAX supplement (Thermo Fisher Scientific, cat. 35050061), 0.1 mg/mL primocin (InvivoGen, cat. ant-pm-2), 10% defined fetal bovine serum, heat inactivated (HyClone Laboratories Inc., cat. SH30070.03HI), 50% L-WRN conditioned media (ATCC, cat. CRL-3276), 1.25 mM N-Acetyl-L-cysteine (Sigma-Aldrich, cat. A9165), 10 mM nicotinamide (Sigma-Aldrich, cat. N0636), 1X B-27 supplement (Thermo Fisher Scientific, cat. 17504044), 1X N-2 supplement (Thermo Fisher Scientific, cat. 17502048), 10 microM Y-27632 dihydrochloride (Tocris Bioscience, cat. 1254), and 50 ng/mL human EGF recombinant protein (Thermo Fisher Scientific, cat. PHG0311). The 485176-168-R4-J1-PDC line was cultured in Panc media, which includes all 6C/Colon 1B media components plus 100 ng/mL human FGF-10 (Thermo Fisher Scientific, cat. 100-26), 500 nM SB-431542 (Selleckchem, cat. S1067), and gastrin (Tocris, cat. 3006).
[…]

[1] = second compound 0.0316 µM, first compound 0.0316 µM
[2] = second compound 0.0316 µM, first compound 0.316 µM
[3] = second compound 0.1 µM, first compound 0.0316 µM
[4] = second compound 0.1 µM, first compound 0.316 µM
[5] = second compound 0.316 µM, first compound 0.0316 µM
[6] = second compound 0.316 µM, first compound 0.316 µM
[7] = second compound 1 µM, first compound 0.0316 µM
[8] = second compound 1 µM, first compound 0.316 µM
[9] = second compound 3.16 µM, first compound 0.0316 µM
[10] = second compound 3.16 µM, first compound 0.316 µM
[11] = second compound 10 µM, first compound 0.0316 µM
[12] = second compound 10 µM, first compound 0.316 µM

Work on `CC[C@@]1(O)C(=O)OCc2c1cc1n(c2=O)Cc2cc3c(CN(C)C)c(O)ccc3nc2-1` + Cc1[nH]c2ccc(F)cc2c1-c1nc2c3cccnc3c3ncccc3c2[nH]1 yielded an IC50 (second compound 0.0316 µM) of 52.8 nM, an IC50 (second compound 0.1 µM) of 53.8 nM and an IC50 (second compound 0.316 µM) of 52.4 nM. The IC50 (second compound 1 µM) was 46.9 nM, the IC50 (second compound 3.16 µM) was 38.4 nM and the IC50 (second compound 10 µM) was 46.1 nM. The viability, T/C (second compound 0.0316 µM, first compound 0.000999 µM) was 109%, the viability, T/C (second compound 0.0316 µM, first compound 0.00316 µM) was 110% and the viability, T/C (second compound 0.0316 µM, first compound 0.00999 µM) was 109%. The viability, T/C [1] was 71.6%, the viability, T/C (second compound 0.0316 µM, first compound 0.0999 µM) was 23.4% and the viability, T/C [2] was 12.9%. For the same molecule, the viability, T/C (second compound 0.1 µM, first compound 0.000999 µM) was 98.5%, the viability, T/C (second compound 0.1 µM, first compound 0.00316 µM) was 105% and the viability, T/C (second compound 0.1 µM, first compound 0.00999 µM) was 111%. The viability, T/C [3] was 73.3%, the viability, T/C (second compound 0.1 µM, first compound 0.0999 µM) was 23.7% and the viability, T/C [4] was 14%. The viability, T/C (second compound 0.316 µM, first compound 0.000999 µM) was 109%, the viability, T/C (second compound 0.316 µM, first compound 0.00316 µM) was 108% and the viability, T/C (second compound 0.316 µM, first compound 0.00999 µM) was 114%. The viability, T/C [5] was 69.9%, the viability, T/C (second compound 0.316 µM, first compound 0.0999 µM) was 25.9% and the viability, T/C [6] was 13.6%. The viability, T/C (second compound 1 µM, first compound 0.000999 µM) was 118%, the viability, T/C (second compound 1 µM, first compound 0.00316 µM) was 107% and the viability, T/C (second compound 1 µM, first compound 0.00999 µM) was 125%. It also gave a viability, T/C [7] of 65.4%, a viability, T/C (second compound 1 µM, first compound 0.0999 µM) of 27.4% and a viability, T/C [8] of 13.8%. For the same molecule, the viability, T/C (second compound 3.16 µM, first compound 0.000999 µM) was 92.7%, the viability, T/C (second compound 3.16 µM, first compound 0.00316 µM) was 88.1% and the viability, T/C (second compound 3.16 µM, first compound 0.00999 µM) was 86.4%. For the same molecule, the viability, T/C [9] was 51.6%, the viability, T/C (second compound 3.16 µM, first compound 0.0999 µM) was 30.7% and the viability, T/C [10] was 16.3%. It also gave a viability, T/C (second compound 10 µM, first compound 0.000999 µM) of 92.2%, a viability, T/C (second compound 10 µM, first compound 0.00316 µM) of 101% and a viability, T/C (second compound 10 µM, first compound 0.00999 µM) of 105%. The viability, T/C [11] was 62.9%, the viability, T/C (second compound 10 µM, first compound 0.0999 µM) was 26.1% and the viability, T/C [12] was 14.6%.
In the case of `O=C(c1cc(Cc2n[nH]c(=O)c3ccccc23)ccc1F)N1CCN(C(=O)C2CC2)CC1` + Cc1[nH]c2ccc(F)cc2c1-c1nc2c3cccnc3c3ncccc3c2[nH]1, the IC50 (second compound 0.0316 µM) is reported as greater than 10000 nM, the IC50 (second compound 0.1 µM) is reported as greater than 10000 nM and the IC50 (second compound 0.316 µM) is reported as greater than 10000 nM. For the same molecule, the IC50 (second compound 1 µM) was greater than 10000 nM, the IC50 (second compound 3.16 µM) was greater than 10000 nM and the IC50 (second compound 10 µM) was greater than 10000 nM. For the same molecule, the viability, T/C [1] was 100%, the viability, T/C (second compound 0.0316 µM, first compound 0.1 µM) was 88.9% and the viability, T/C [2] was 86.7%. The viability, T/C (second compound 0.0316 µM, first compound 1 µM) was 102%, the viability, T/C (second compound 0.0316 µM, first compound 3.16 µM) was 110% and the viability, T/C (second compound 0.0316 µM, first compound 10 µM) was 80.6%. For the same molecule, the viability, T/C [3] was 101%, the viability, T/C (second compound 0.1 µM, first compound 0.1 µM) was 97.4% and the viability, T/C [4] was 86.7%. The viability, T/C (second compound 0.1 µM, first compound 1 µM) was 103%, the viability, T/C (second compound 0.1 µM, first compound 3.16 µM) was 96.1% and the viability, T/C (second compound 0.1 µM, first compound 10 µM) was 91.5%. It also gave a viability, T/C [5] of 92.2%, a viability, T/C (second compound 0.316 µM, first compound 0.1 µM) of 105% and a viability, T/C [6] of 105%. For the same molecule, the viability, T/C (second compound 0.316 µM, first compound 1 µM) was 94.8%, the viability, T/C (second compound 0.316 µM, first compound 3.16 µM) was 111% and the viability, T/C (second compound 0.316 µM, first compound 10 µM) was 83%. For the same molecule, the viability, T/C [7] was 96.2%, the viability, T/C (second compound 1 µM, first compound 0.1 µM) was 95.5% and the viability, T/C [8] was 102%. For the same molecule, the viability, T/C (second compound 1 µM, first compound 1 µM) was 102%, the viability, T/C (second compound 1 µM, first compound 3.16 µM) was 117% and the viability, T/C (second compound 1 µM, first compound 10 µM) was 74.7%. For the same molecule, the viability, T/C [9] was 80.5%, the viability, T/C (second compound 3.16 µM, first compound 0.1 µM) was 78.7% and the viability, T/C [10] was 84.3%. It also gave a viability, T/C (second compound 3.16 µM, first compound 1 µM) of 73.4%, a viability, T/C (second compound 3.16 µM, first compound 3.16 µM) of 74.7% and a viability, T/C (second compound 3.16 µM, first compound 10 µM) of 61.6%. For the same molecule, the viability, T/C [11] was 94.1%, the viability, T/C (second compound 10 µM, first compound 0.1 µM) was 90.5% and the viability, T/C [12] was 105%. The viability, T/C (second compound 10 µM, first compound 1 µM) was 90.8%, the viability, T/C (second compound 10 µM, first compound 3.16 µM) was 91.3% and the viability, T/C (second compound 10 µM, first compound 10 µM) was 72.1%.
